Biological target: human Gal-3 (hGal-3) (Homo sapiens (Human), UniProt P17931)
Assay: Competitive binding assay: biotinylated hGal-3 binding to microplate-adsorbed asialofetuin (ASF)
Conditions: Activity on hGal-3; mean values of several measurements; mixture of diastereomers measured where not separated
Protocol: The inhibitory activity of compounds is determined in competitive binding assays. This spectrophotometric assay measures the binding of biotinylated human Gal-3 (hGal-3) or human Gal-1 (hGal-1), respectively, to a microplate-adsorbed glycoprotein, asialofetuin (ASF) (Proc Natl Acad Sci USA. 2013 Mar 26;110(13):5052-7.). Alternatively, and preferably, a human Gal-1 version in which all six cysteines are substituted by serines may be used.
Briefly, compounds are serially diluted in DMSO (working dilutions).
Plates are incubated for 3 hours at 4° C., then washed with cold assay buffer (3×50 uL), incubated for 1 hour with 25 μL/well of a streptavidin-peroxidase solution (diluted in assay buffer to 80 ng/mL) at 4° C., followed by further washing steps with assay buffer (3×50 uL). Finally, 25 μL/well of ABTS substrate is added.
The calculated IC50 values may fluctuate depending on the daily assay performance. Fluctuations of this kind are known to those skilled in the art. IC50 values from several measurements are given as mean values.

Sequence of human Gal-3 (hGal-3) (P17931 whole entry): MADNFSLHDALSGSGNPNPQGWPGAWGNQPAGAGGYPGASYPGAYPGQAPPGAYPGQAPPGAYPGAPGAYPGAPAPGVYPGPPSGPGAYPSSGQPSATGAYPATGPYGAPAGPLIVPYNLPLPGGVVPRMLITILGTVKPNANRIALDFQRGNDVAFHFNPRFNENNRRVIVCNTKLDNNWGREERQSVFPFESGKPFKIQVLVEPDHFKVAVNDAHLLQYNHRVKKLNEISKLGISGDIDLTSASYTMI

| IC50 [µM] | Compound |
| --- | --- |
| 0.047 | CO[C@@H]1[C@@H](n2cc(-c3ccc(Br)c(F)c3F)nn2)[C@@H](O)[C@@H](CO)O[C@H]1C(=O)N(c1cc(Cl)cc(Cl)c1)[C@H]1COC[C@@H]1O [Example 12, (2R,3R,4S,5R,6R)-4-(4-(4-bromo-2,3-difluorophenyl)-1H-1,2,3-triazol-1-yl)-N-(3,5-dichlorophenyl)-5-hydroxy-6-(hydroxymethyl)-N-((3S,4R)-4-hydroxytetrahydrofuran-3-yl)-3-methoxytetrahydro-2H-pyran-2-carboxamide] |
| 0.015 | CO[C@@H]1[C@@H](n2cc(-c3ccc(Br)c(F)c3F)nn2)[C@@H](O)[C@@H](CO)O[C@H]1C(=O)N(c1cc(Br)cc(C#N)c1)[C@H]1COC[C@@H]1O [Example 13, (2R,3R,4S,5R,6R)-4-(4-(4-bromo-2,3-difluorophenyl)-1H-1,2,3-triazol-1-yl)-N-(3-bromo-5-cyanophenyl)-5-hydroxy-6-(hydroxymethyl)-N-((3S,4R)-4-hydroxytetrahydrofuran-3-yl)-3-methoxytetrahydro-2H-pyran-2-carboxamide] |
| 0.046 | CO[C@@H]1[C@@H](n2cc(-c3ccc(Br)c(F)c3F)nn2)[C@@H](O)[C@@H](CO)O[C@H]1C(=O)N(c1cc(C)cc(Br)c1)[C@H]1COC[C@@H]1O [Example 14, (2R,3R,4S,5R,6R)-4-(4-(4-bromo-2,3-difluorophenyl)-1H-1,2,3-triazol-1-yl)-N-(3-bromo-5-methylphenyl)-5-hydroxy-6-(hydroxymethyl)-N-((3S,4R)-4-hydroxytetrahydrofuran-3-yl)-3-methoxytetrahydro-2H-pyran-2-carboxamide] |
| 0.038 | CO[C@@H]1[C@@H](n2cc(-c3cc(F)c(C)c(F)c3)nn2)[C@@H](O)[C@@H](CO)O[C@H]1C(=O)N(c1cc(Cl)cc(Cl)c1)[C@H]1COC[C@@H]1O [Example 15, (2R,3R,4S,5R,6R)-N-(3,5-dichlorophenyl)-4-(4-(3,5-difluoro-4-methylphenyl)-1H-1,2,3-triazol-1-yl)-5-hydroxy-6-(hydroxymethyl)-N-((3S,4R)-4-hydroxytetrahydrofuran-3-yl)-3-methoxytetrahydro-2H-pyran-2-carboxamide] |
| 0.061 | CO[C@@H]1[C@@H](n2cc(-c3cc(F)c(C)c(F)c3)nn2)[C@@H](O)[C@@H](CO)O[C@H]1C(=O)N(c1cc(Br)cc(Br)c1)[C@H]1COC[C@@H]1O [Example 16, (2R,3R,4S,5R,6R)-N-(3,5-dibromophenyl)-4-(4-(3,5-difluoro-4-methylphenyl)-1H-1,2,3-triazol-1-yl)-5-hydroxy-6-(hydroxymethyl)-N-((3S,4R)-4-hydroxytetrahydrofuran-3-yl)-3-methoxytetrahydro-2H-pyran-2-carboxamide] |

The next lines start with the compound.

| Compound | IC50 [µM] |
| --- | --- |
| CO[C@@H]1[C@@H](n2cc(-c3cc(F)c(F)c(F)c3)nn2)[C@@H](O)[C@@H](CO)O[C@H]1C(=O)N(c1cccc(Cl)c1)[C@H]1COC[C@@H]1O [Example 1, (2R,3R,4S,5R,6R)-N-(3-chlorophenyl)-5-hydroxy-6-(hydroxymethyl)-N-((3S,4R)-4-hydroxytetrahydrofuran-3-yl)-3-methoxy-4-(4-(3,4,5-trifluorophenyl)-1H-1,2,3-triazol-1-yl)tetrahydro-2H-pyran-2-carboxamide] | 0.102 |
| CO[C@@H]1[C@@H](n2cc(-c3cc(F)c(F)c(F)c3)nn2)[C@@H](O)[C@@H](CO)O[C@H]1C(=O)N(c1cccc(Br)c1)[C@H]1COC[C@@H]1O [Example 2, (2R,3R,4S,5R,6R)-N-(3-bromophenyl)-5-hydroxy-6-(hydroxymethyl)-N-((3S,4R)-4-hydroxytetrahydrofuran-3-yl)-3-methoxy-4-(4-(3,4,5-trifluorophenyl)-1H-1,2,3-triazol-1-yl)tetrahydro-2H-pyran-2-carboxamide] | 0.08 |
| CO[C@@H]1[C@@H](n2cc(-c3cc(F)c(F)c(F)c3)nn2)[C@@H](O)[C@@H](CO)O[C@H]1C(=O)N(c1cccc(I)c1)[C@H]1COC[C@@H]1O [Example 3, (2R,3R,4S,5R,6R)-5-hydroxy-6-(hydroxymethyl)-N-((3S,4R)-4-hydroxytetrahydrofuran-3-yl)-N-(3-iodophenyl)-3-methoxy-4-(4-(3,4,5-trifluorophenyl)-1H-1,2,3-triazol-1-yl)tetrahydro-2H-pyran-2-carboxamide] | 0.056 |
| CO[C@@H]1[C@@H](n2cc(-c3cc(F)c(F)c(F)c3)nn2)[C@@H](O)[C@@H](CO)O[C@H]1C(=O)N(c1cc(Cl)cc(C#N)c1)[C@H]1COC[C@@H]1O [Example 5, (2R,3R,4S,5R,6R)-N-(3-chloro-5-cyanophenyl)-5-hydroxy-6-(hydroxymethyl)-N-((3S,4R)-4-hydroxytetrahydrofuran-3-yl)-3-methoxy-4-(4-(3,4,5-trifluorophenyl)-1H-1,2,3-triazol-1-yl)tetrahydro-2H-pyran-2-carboxamide] | 0.069 |
| CO[C@@H]1[C@@H](n2cc(-c3cc(F)c(F)c(F)c3)nn2)[C@@H](O)[C@@H](CO)O[C@H]1C(=O)N(c1cc(Br)cc(Br)c1)[C@H]1COC[C@@H]1O [Example 6, (2R,3R,4S,5R,6R)-N-(3,5-dibromophenyl)-5-hydroxy-6-(hydroxymethyl)-N-((3S,4R)-4-hydroxytetrahydrofuran-3-yl)-3-methoxy-4-(4-(3,4,5-trifluorophenyl)-1H-1,2,3-triazol-1-yl)tetrahydro-2H-pyran-2-carboxamide] | 0.053 |
| CO[C@@H]1[C@@H](n2cc(-c3cc(F)c(F)c(F)c3)nn2)[C@@H](O)[C@@H](CO)O[C@H]1C(=O)N(c1cc(C)cc(Br)c1)[C@H]1COC[C@@H]1O [Example 8, (2R,3R,4S,5R,6R)-N-(3-bromo-5-methylphenyl)-5-hydroxy-6-(hydroxymethyl)-N-((3S,4R)-4-hydroxytetrahydrofuran-3-yl)-3-methoxy-4-(4-(3,4,5-trifluorophenyl)-1H-1,2,3-triazol-1-yl)tetrahydro-2H-pyran-2-carboxamide] | 0.077 |
| COc1cc(C#N)cc(N(C(=O)[C@@H]2O[C@H](CO)[C@H](O)[C@H](n3cc(-c4cc(F)c(F)c(F)c4)nn3)[C@H]2OC)[C@H]2COC[C@@H]2O)c1 [Example 9, (2R,3R,4S,5R,6R)-N-(3-cyano-5-methoxyphenyl)-5-hydroxy-6-(hydroxymethyl)-N-((3S,4R)-4-hydroxytetrahydrofuran-3-yl)-3-methoxy-4-(4-(3,4,5-trifluorophenyl)-1H-1,2,3-triazol-1-yl)tetrahydro-2H-pyran-2-carboxamide] | 0.101 |
| CO[C@@H]1[C@@H](n2cc(-c3cc(F)c(F)c(F)c3)nn2)[C@@H](O)[C@@H](CO)O[C@H]1C(=O)N(c1cc(C)cc(C#N)c1)[C@H]1COC[C@@H]1O [Example 10, (2R,3R,4S,5R,6R)-N-(3-cyano-5-methylphenyl)-5-hydroxy-6-(hydroxymethyl)-N-((3S,4R)-4-hydroxytetrahydrofuran-3-yl)-3-methoxy-4-(4-(3,4,5-trifluorophenyl)-1H-1,2,3-triazol-1-yl)tetrahydro-2H-pyran-2-carboxamide] | 0.136 |
| CO[C@@H]1[C@@H](n2cc(-c3cc(F)c(F)c(F)c3)nn2)[C@@H](O)[C@@H](CO)O[C@H]1C(=O)N(c1cc(F)cc(C#N)c1)[C@H]1COC[C@@H]1O [Example 11, (2R,3R,4S,5R,6R)-N-(3-cyano-5-fluorophenyl)-5-hydroxy-6-(hydroxymethyl)-N-((3S,4R)-4-hydroxytetrahydrofuran-3-yl)-3-methoxy-4-(4-(3,4,5-trifluorophenyl)-1H-1,2,3-triazol-1-yl)tetrahydro-2H-pyran-2-carboxamide] | 0.124 |
